Laboratory results reported in US10359432B2, “Methods for detecting antibodies” (The Regents of the University of California, priority 2008, dated 2019).
Each block holds one substance with its values, some of them ahead of it. Bridge positions count the residues as written; N and C are the ends. Ends that are not written are not given here. * marks the point of attachment. Biotin = O=C1N[C@H]2[C@H](CS[C@H]2CCCCC(=O)*)N1

Legend:
alemtuzumab = assay: Antibody-peptide binding kinetics, SkiPro interferometer, whole mAb; details: whole molecule alemtuzumab
Excerpt: (§1) FIGS. 7A to 7D include graphical illustrations showing the kinetics of antibody-peptide binding. Biotinylated peptides were captured onto streptavidin coated nanoporous surfaces. The binding of the mAb or their Fab fragments was monitored on a SkiPro™ interferometer. The binding curves were globally fit to a single binding site association/dissociation model to derive Kon, Koff, and Kd values.
(§2) Kinetics of antibody-peptide binding were studied using SkiPro™ Biomolecular Interaction technology platform on a SkiPro™ interferometer equipped with a 2-channel flow cell and an autosampler (Silicon Kinetics Inc. San Diego, Calif.). All reagents were purchased from Sigma-Aldrich (St. Louis, Mo.). All peptides were incubated with oxidizing agent Sodium Tetrathionate at 10 mM in PBS for 1 hour immediately before binding experiments. Biotinylated peptides were diluted to 5 μM in PBS/0.05% BSA and immobilized on Streptavidin-coated SkiSensor™ Biochips for 10 minutes at 4 μl/min flow rate. […] Concentration series of antibodies and antibody Fab fragments were prepared as twofold dilutions in PBS/0.05% BSA. Binding was carried out for 10 minutes followed by 20 minutes dissociation. For all sensorgrams reference channel data was subtracted from the sample channel. The resulting multi-concentration series of binding curves were globally fit to a single binding site association/dissociation model.
(§3) Biotinylated peptides were used for kinetic binding measurements using nano-pore optical interferometry (FIGS. 7A-7D).

[1] = biological target: Fab fragments of alemtuzumab; assay: Antibody-peptide binding kinetics, SkiPro interferometer, Fab fragments
Protocol: as §1
Antibodies were prepared as follows. Alemtuzumab (Genzyme, Cambridge, Mass.) and rituximab (Genentech, San Francisco, Calif.) were obtained from the UCSD Cancer Center pharmacy. The antibodies were fluorescently labeled using the Zenon® R-Phycoerythrin Human IgG labeling kit, Zenon® Alexa Fluor® 488 Human IgG labeling and Zenon® Alexa Fluor® 488 protein labeling kits (Invitrogen, Carlsbad, Calif.). For kinetic studies, Fab fragments of each mAb were prepared by papain digestion using a Fab preparation kit (Thermo Fisher Scientific, Rockford, Ill.) as per manufacturers instructions.
as §2, §3

primary CLL cells = assay: Peptide inhibition of CLL cell staining by labeled mAb, flow cytometry; type: cell-based, human; details: for Staining of primary CLL cells by fluorescently labeled mAb: no peptide
Protocol: The shaded histogram represents staining with labeled human IgG.
After informed consent was obtained per the Declaration of Helsinki, blood samples were collected from patients at the University of California, San Diego (UCSD) Medical Center who satisfied diagnosis and immunophenotypic criteria for common B-cell CLL.
Subsequently, cells were washed two times with 100 μl FACS-wash (PBS, 5% FCS and 0.5% sodium azide) and fixed with 100 μl with 3.7% formaldehyde in PBS.
There was no effect on the binding activity of the other mAb (data not shown).

Kd (alemtuzumab): 163 nM
Koff (alemtuzumab): 0.00132 s⁻¹
Kon (alemtuzumab; biotinylated peptide on streptavidin surface): 8130 M⁻¹ s⁻¹
Kd [1]: 2050 nM
Koff [1]: 0.00505 s⁻¹
Kon [1]: 2460 M⁻¹ s⁻¹
Substance: ACGSLSPSSC [Cp-1]

Substance: ACGSLSPSSCGGK (ACGSLSPSSCGGK(Biotin); disulfide 2-10 (inferred)) [pCp-1B]
CLL cell labeling by fluorescently labeled alemtuzumab with peptide added (primary CLL cells; peptide at 25,000 molar excess): largely abrogated

Substance: ACPYSNPSLCGGK (ACPYSNPSLCGGK(Biotin); disulfide 2-10 (inferred)) [pRTX-10B]
CLL cell labeling by fluorescently labeled rituximab with peptide added (primary CLL cells; peptide at 25,000 molar excess): largely abrogated

Substance: alemtuzumab [reference compound]
Staining of primary CLL cells by fluorescently labeled mAb (primary CLL cells): robust staining

Substance: rituximab [reference compound]
Staining of primary CLL cells by fluorescently labeled mAb (primary CLL cells): weak
